Reference: US20230116978A1, “METHOD FOR LIBERATING INTRACELLULAR MATERIAL FROM PLANT CELLS” (Deerland Enzymes, Inc., priority 2021, published 2023)

Legend:
[1] = Total antioxidant capacity, Folin-Ciocalteu assay (total phenolics assay); details: for Total antioxidant capacity: Folin-Ciocalteu, gallic acid reference
Procedure: Total antioxidant capacity was tested in the Folin-Ciocalteu assay (also known as the total phenolics assay). This assay makes use of the Folin-Ciocalteu reagent to measure antioxidants. The assay is performed by adding the Folin-Ciocalteu's phenol reagent to serial dilutions of extract, thoroughly mixing, and incubating for 5 minutes. Sodium carbonate is added, starting a chemical reaction producing a color. The reaction is allowed to continue for 30 minutes at 37° C. Optical absorbance is measured at 765 nm in a colorimetric plate reader. Gallic acid is used as a reference standard, and the data reported in Gallic Acid Equivalents per gram product.

[2] = tested on: human polymorphonuclear (PMN) cells; assay: ROS formation by inflammatory PMN cells (H2O2-triggered, DCF-DA, flow cytometry); type: cell-based; details: for effect on ROS formation by PMN cells (anti-/pro-inflammatory), in words: H2O2-triggered ROS
Text: In measuring the effect on free radical formation by inflammatory cells, human polymorphonuclear (PMN) cells were used for testing effects of a product on ROS formation. PMN cells constitute approximately 70% of the white blood cells in humans. PMN cells produce high amounts of ROS upon certain inflammatory stimuli. Natural products may affect PMN cell ROS formation by three different mechanisms: 1. […] Triggering an anti-inflammatory cellular signal, leading to reduced ROS formation; 3. Triggering an immune reaction, leading to enhanced ROS formation. The effects of test products were measured by exposing freshly purified human PMN cells to the test products. During the incubation with a test product, any antioxidant compounds able to cross the cell membrane can enter the interior of the PMN cells, and compounds that trigger a signaling event can do so. Then the cells are washed, loaded with the DCF-DA dye, which turns fluorescent upon exposure to ROS. Formation of ROS is triggered by addition of H2O2. The fluorescence intensity of the PMN cells is evaluated by flow cytometry. The low fluorescence intensity of untreated control cells serves as a baseline and PMN cells treated with H2O2 alone serve as a positive control. […] The testing was performed on cells from a healthy donor. […]

human RBC = assay: Cellular antioxidant protection, CAP-e bioassay; type: cell-based; details: for Cellular antioxidant Protection (CAP-e value): human RBC, AAPH oxidation
Procedure: Cell-based antioxidant protection was measured via a CAP-e bioassay. […] The CAP-e bioassay was specifically designed to work with natural products and ingredients. The red blood cell (RBC) was used as the model cell type as it is an inert cell type, in contrast to other cell types such as PMN cells. The red blood cell-based assay was developed particularly to be able to assess antioxidants from complex natural products in a cell-based system, as well as help interpret subsequent data from more complex cellular models. Freshly purified human RBC are washed repeatedly in physiological saline, and then exposed to the test products. During the incubation with a test product, any antioxidant compounds able to cross the cell membrane can enter the interior of the RBC. Then the RBC are washed to remove compounds that were not absorbed by the cells, and loaded with the DCF-DA dye, which turns fluorescent upon exposure to reactive oxygen species (ROS). Oxidation is triggered by addition of the peroxyl free radical generator AAPH. The fluorescence intensity is evaluated. The low fluorescence intensity of untreated control cells serves as a baseline, and RBC treated with AAPH alone serve as a positive control for maximum oxidative damage. […] Based on the low fluorescence of the untreated control wells, and the high fluorescence of the cell cultures exposed to oxidative damage, the fluorescence intensity in cell cultures treated with test products prior to exposure to oxidative stress is used to calculate the percent inhibition of cellular oxidative stress.

Structure (SMILES) | Total antioxidant capacity [1] | effect on ROS formation by PMN cells (anti-/pro-inflammatory), in words [2] | total antioxidant capacity, comparison in words [1] | cellular antioxidant protection, comparison in words (human RBC) | Cell lysing (human RBC; highest concentration tested) | Cellular antioxidant Protection (CAP-e value) (human RBC) | effect on ROS formation by PMN cells at the highest/higher doses ([2]; highest or higher doses)
CC1=C(/C=C/C(C)=C/C=C/C(C)=C/C=C/C=C(C)/C=C/C=C(C)/C=C/C2=C(C)C(=O)[C@@H](O)CC2(C)C)C(C)(C)C[C@H](O)C1=O [Astaxanthin] | 2 mg GAE per gram | less anti-inflammatory capacity than the SOLARPLAST® post-aqueous fraction |  |  |  |  | 
N[C@@H](CCC(=O)N[C@@H](CS)C(=O)NCC(=O)O)C(=O)O [L-glutathione, reduced] | 153 mg GAE per gram | less anti-inflammatory capacity than the SOLARPLAST® post-aqueous fraction | had more antioxidant capacity than SOLARPLAST® | had more antioxidant capacity than SOLARPLAST® | Cell lysing occurred | 619 μM GA/gram | robust increase in ROS formation
Oc1ccc(C=Cc2cc(O)cc(O)c2)cc1 [Resveratrol] |  | considerably more anti-inflammatory capabilities than any of the fractions of SOLARPLAST® |  | had more antioxidant capacity than SOLARPLAST® |  | 235 μM GA/gram | 
